According to US8513187B2, “Soft protease inhibitors, and pro-soft forms thereof” (priority 2009, dated 2013):

Columns and labels:
Sprague-Dawley (SD) rats = settings: rat, in vivo, 300 mg/kg
Method: In an experiment, 13 male SD rats were given 300 mg/kg of compound 5.

DPP9 [1] = target: T1, DPP9 (Homo sapiens, UniProt Q86TI2); test: In vitro DPP9 inhibition assay (IC50, GP-AMC substrate); type: biochemical; settings: DPP IV versus DPP9
Method: (§1) FIG. 6 depicts a table outlining various in vitro and in vivo assay results for DPP inhibitors. CLogP values were calculated using ChemDraw Ultra version 11.0. […] All except PREP used the same substrate (GP-AMC), but different concentrations (10 μM for DPP IV, 25 μM for DPP8 and DPP9, and 50 μM for FAP).
(§2) The methods of biological testing used are described in International Patent Application PCT/US06/047853, published as WO/2007/100374, which claims priority to U.S. Provisional Patent Application No. 60/752,017. These methods are herein incorporated in their entirety by reference.
(§3) FIGS. 6-9 depict the results from various biological assays. The CLogP values in these figures were calculated using ChemDraw Ultra version 11.0.

PREP = target: T2, PREP (Homo sapiens, UniProt P48147); test: In vitro PREP inhibition assay; type: biochemical
T2 sequence (P48147 1-710): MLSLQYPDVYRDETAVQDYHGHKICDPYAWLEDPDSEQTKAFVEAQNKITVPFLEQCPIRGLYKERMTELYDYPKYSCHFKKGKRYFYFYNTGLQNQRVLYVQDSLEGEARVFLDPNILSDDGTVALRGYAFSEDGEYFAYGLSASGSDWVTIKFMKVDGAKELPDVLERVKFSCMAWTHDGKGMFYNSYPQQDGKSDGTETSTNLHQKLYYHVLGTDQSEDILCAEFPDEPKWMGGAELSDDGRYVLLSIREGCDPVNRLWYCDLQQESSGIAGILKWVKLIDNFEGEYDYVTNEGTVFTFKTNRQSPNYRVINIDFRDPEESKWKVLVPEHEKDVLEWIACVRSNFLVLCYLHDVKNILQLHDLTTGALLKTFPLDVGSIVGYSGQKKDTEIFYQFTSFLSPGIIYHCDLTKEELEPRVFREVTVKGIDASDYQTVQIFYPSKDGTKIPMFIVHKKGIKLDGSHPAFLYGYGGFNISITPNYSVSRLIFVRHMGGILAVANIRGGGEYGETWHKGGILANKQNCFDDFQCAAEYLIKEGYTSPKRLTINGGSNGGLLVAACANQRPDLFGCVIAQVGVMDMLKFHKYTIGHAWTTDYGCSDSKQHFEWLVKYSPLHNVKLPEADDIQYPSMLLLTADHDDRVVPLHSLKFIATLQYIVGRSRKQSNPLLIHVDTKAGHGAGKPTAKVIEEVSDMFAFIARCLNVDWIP
Method: (§4) FIG. 6 depicts a table outlining various in vitro and in vivo assay results for DPP inhibitors. CLogP values were calculated using ChemDraw Ultra version 11.0. […] The methods of biological testing used are described in International Patent Application PCT/US06/047853, published as WO/2007/100374, which claims priority to U.S. […] These methods are herein incorporated in their entirety by reference. FIGS. 6-9 depict the results from various biological assays. The CLogP values in these figures were calculated using ChemDraw Ultra version 11.0.

DPP8 = DPP8 (Homo sapiens, UniProt Q6V1X1); test: In vitro DPP8 inhibition assay (IC50, GP-AMC substrate); type: biochemical; settings: DPP IV versus DPP8
Chain of DPP8 (Q6V1X1 whole entry, species assumed): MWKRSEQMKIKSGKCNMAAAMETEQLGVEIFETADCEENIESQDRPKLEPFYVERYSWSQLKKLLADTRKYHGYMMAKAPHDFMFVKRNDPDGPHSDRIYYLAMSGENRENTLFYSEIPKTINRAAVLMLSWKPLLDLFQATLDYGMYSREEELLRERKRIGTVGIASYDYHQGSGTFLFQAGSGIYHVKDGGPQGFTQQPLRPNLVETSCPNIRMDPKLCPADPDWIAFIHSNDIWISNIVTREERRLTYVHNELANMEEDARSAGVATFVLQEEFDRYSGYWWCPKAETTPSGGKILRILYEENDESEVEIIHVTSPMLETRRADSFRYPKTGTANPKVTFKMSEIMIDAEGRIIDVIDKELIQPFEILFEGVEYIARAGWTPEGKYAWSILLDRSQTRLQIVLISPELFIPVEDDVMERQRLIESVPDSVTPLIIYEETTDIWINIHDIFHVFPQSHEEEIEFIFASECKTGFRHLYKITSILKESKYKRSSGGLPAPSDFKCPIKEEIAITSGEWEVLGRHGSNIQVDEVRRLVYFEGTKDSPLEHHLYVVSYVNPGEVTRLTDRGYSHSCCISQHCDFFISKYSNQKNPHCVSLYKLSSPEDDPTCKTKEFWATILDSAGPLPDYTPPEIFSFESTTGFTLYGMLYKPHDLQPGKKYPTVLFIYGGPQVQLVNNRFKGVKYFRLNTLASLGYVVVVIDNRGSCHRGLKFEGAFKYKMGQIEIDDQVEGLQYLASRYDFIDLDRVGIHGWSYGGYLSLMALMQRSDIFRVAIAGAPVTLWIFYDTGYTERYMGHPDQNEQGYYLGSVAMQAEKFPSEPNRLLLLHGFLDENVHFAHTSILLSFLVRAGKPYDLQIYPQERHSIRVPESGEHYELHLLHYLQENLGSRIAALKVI
Method: as §1, §2, §3

FAP = target: T3, FAP (Homo sapiens, UniProt Q12884); test: In vitro FAP inhibition assay (GP-AMC substrate); type: biochemical
T3 sequence (Q12884 1-760): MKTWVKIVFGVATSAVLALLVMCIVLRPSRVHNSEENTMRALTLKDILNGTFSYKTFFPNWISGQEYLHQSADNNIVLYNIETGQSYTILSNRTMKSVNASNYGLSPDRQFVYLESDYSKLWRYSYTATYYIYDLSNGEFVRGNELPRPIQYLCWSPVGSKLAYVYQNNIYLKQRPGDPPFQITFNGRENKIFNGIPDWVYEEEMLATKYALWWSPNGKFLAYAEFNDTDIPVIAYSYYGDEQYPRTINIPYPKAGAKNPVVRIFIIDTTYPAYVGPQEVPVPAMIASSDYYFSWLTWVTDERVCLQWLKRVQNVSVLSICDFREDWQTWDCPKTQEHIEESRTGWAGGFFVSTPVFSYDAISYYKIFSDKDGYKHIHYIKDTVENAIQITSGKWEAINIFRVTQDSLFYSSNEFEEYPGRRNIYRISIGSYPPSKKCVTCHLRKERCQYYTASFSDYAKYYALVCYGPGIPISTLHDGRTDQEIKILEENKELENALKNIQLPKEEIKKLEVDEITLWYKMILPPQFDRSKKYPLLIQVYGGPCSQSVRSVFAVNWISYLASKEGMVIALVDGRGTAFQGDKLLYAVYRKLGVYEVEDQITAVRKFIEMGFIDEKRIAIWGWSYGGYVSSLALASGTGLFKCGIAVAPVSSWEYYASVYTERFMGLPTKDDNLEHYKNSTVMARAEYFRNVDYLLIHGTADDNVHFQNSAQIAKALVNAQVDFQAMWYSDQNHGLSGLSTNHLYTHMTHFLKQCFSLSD
Method: as §4

DPP IV = DPP IV (Homo sapiens, UniProt P27487); test: In vitro DPP IV inhibition assay (IC50, GP-AMC substrate); type: biochemical; settings: potency ratio versus oxy-analog compound 11
Chain of DPP IV (P27487 whole entry, species assumed): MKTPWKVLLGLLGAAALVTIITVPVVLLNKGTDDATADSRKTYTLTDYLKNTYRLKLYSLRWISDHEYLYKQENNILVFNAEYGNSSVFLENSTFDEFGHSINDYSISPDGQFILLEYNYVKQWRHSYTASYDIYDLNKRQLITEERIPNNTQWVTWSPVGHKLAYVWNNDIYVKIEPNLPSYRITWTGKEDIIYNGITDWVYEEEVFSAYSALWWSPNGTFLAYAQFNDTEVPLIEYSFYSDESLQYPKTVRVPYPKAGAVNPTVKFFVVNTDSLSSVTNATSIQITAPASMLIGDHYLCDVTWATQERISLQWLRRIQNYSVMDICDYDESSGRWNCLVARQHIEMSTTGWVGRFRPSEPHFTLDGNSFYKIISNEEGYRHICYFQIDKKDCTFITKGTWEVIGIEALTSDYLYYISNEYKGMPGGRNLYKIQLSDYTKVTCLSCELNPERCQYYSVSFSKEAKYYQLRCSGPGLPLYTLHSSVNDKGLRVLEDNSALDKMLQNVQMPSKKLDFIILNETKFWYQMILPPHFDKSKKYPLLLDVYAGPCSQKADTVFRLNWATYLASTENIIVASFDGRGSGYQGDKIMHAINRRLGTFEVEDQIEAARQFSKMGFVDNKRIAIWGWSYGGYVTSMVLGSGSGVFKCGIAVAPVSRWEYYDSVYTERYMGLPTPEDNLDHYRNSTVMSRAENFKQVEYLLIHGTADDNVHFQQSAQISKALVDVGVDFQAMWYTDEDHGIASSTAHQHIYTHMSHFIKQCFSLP
Method: as §1, §2, §3

DPP9 [2] = target: T1, DPP9; test: Intracellular IC50 (IC-IC50), intracellular potency against DPP9; type: cell-based; settings: compounds preincubated at pH 2.0 for 4 h
Excerpt: It is important to note that IC-IC50 is not a measure of cell permeability. Like IC50, it is a composite of factors, including cell permeability, potency against DPP9, rate and equilibrium of the intramolecular cyclization reaction, and inhibitor stability, both intrinsic and intracellular.

T1 sequence (Q86TI2 whole entry, species assumed): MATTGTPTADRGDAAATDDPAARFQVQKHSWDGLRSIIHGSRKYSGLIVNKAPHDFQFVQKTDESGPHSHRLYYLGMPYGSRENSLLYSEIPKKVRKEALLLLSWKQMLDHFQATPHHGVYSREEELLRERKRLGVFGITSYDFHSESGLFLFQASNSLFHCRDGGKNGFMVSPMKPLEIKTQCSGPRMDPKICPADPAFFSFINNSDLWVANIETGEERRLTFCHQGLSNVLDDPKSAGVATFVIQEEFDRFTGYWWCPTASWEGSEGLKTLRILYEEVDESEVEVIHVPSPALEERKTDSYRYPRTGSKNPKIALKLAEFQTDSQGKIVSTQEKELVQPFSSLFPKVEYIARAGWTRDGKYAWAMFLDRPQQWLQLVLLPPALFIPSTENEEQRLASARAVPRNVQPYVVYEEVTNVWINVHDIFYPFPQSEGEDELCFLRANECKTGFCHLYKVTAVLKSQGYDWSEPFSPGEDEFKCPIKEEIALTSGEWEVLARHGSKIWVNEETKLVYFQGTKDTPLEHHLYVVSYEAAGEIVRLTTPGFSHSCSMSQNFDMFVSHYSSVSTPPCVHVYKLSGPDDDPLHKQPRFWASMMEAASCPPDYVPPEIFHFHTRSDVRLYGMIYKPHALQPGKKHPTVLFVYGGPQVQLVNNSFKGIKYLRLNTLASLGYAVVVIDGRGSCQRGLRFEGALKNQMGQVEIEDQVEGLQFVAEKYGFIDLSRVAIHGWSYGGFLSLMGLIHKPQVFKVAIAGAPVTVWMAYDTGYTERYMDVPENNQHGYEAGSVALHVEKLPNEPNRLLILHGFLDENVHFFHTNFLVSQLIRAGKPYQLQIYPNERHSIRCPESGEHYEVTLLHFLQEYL

## CN(CB(O)O)C(=S)[C@@H](N)CCC(=O)O.Cl [Compound 5, Glu-boroSar[thioxo amide]hydrochloride]
Sprague-Dawley (SD) rats
  signs of toxicity after 24 h: no sign of toxicity
DPP9 [1]
  more potent for DPP IV than for DPP9 (selectivity): 6,000 ×
PREP
  selectivity against PREP in vitro: good selectivity
DPP8
  more potent for DPP IV than for DPP8 (selectivity): 13,000 ×
FAP
  selectivity against FAP in vitro: good selectivity
DPP IV
  more potent inhibitor of DPP IV than compound 11: about 66 fold
DPP9 [2]
  IC50: 828 µM
